# Experimental data: US20260374750A1, “LIGANDS SPECIFICALLY TARGETING VESICULAR GLUTAMATE TRANSPORTERS FOR SUPER-RESOLUTION IMAGING” (SORBONNE UNIVERSITÉ, priority 2021, published 2026)
# System: VGLUTs (GLU vesicular transport)
# Assay: Vesicular glutamate reuptake test ([3H]-glutamate, synaptic vesicles)
# Type: biochemical, rat
# Details: for EC50: vesicular glutamate transport; for potency in words (EC50): based on EC50
# Experimental: The EC50 was also determined for several of the compounds of the invention.
# The vesicular glutamate reuptake was tested as previously described (Kish and Ueda, 1989; Naito and Ueda, 1985; Pietrancosta et al., 2010) with minor modifications. Aliquots of synaptic vesicles […] (obtained by differential centrifugation of rat cortex) were diluted in a solution containing 4 mM HEPES-KOH, pH 7.4 and 0.32M sucrose. The tested compounds were dissolved in 1% ethanol, 1% DMSO (pH was adjusted to 7.4 with 5% KOH) to initial concentrations comprised between 2 mM and 200 μM. The compounds were then diluted to desired final concentrations in a solution containing 10 mM HEPES-KOH, pH 7.4, 0.32 M sucrose, 4 mM KCl, 4 mM MgSO4 (named TPU). The tested compounds were pre-incubated in a solution containing 3 mM ATP-Mg, 1 mM L-aspartic acid, 100 μM glutamate and 0.4 mM […] and 0.4 μM [3H]-Glutamate (1.547 TBq/mmol). After 4 min at 37 °C, the reuptake reaction was initiated by the addition of rat synaptic vesicles. This mixture was incubated for 10 min at 37 °C before adding ice-cold TPU (3.5 mL) and rapidly filtering it through a membrane filter ([…], Millipore MF reference HAWP02500) using a vacuum collector. The filters were washed five times with 3.5 mL of cold TPU and placed in scintillation vials with a scintillation cocktail (optiphase hisafe 3, reference 1200-437, Perkin Elmer). The radioactivity related to the filters was measured in a Beckman LS 6500 scintillation spectrophotometer. The values obtained in the absence of ATP-Mg or in the presence of Carbonyl [COMPOUND LEFT OUT] 3-chlorophenylhydrazone (CCCP, 50 μM reference Sigma C2759) were used to determine the non-specific activity.
Compound,EC50 (coumarin-derived compounds) [µM],% inhibition of GLU vesicular transport at 20 μM (coumarin-derived compounds) [%],further results
"O=C(O)c1cc2cc(/N=N/c3ccc(Br)cc3)ccc2oc1=O [LSP9-3160, (E)-6-((4-bromophenyl)diazenyl)-2-oxo-2H-chromene-3-carboxylic Acid]",,14,
"O=C(O)c1cc2cc(/C=C/c3ccccc3)ccc2oc1=O [LSP16-2074, (E)-2-oxo-6-styryl-2H-chromene-3-carboxylic Acid]",,30,
"COc1cc2oc(=O)c(C(=O)O)cc2cc1C#Cc1ccc(-c2ccc(N)cc2)cc1 [LSP17-1127, 6-((4′-amino-[1,1′-biphenyl]-4-yl)ethynyl)-7-methoxy-2-oxo-2H-chromene-3-carboxylic Acid]",,40,
"O=C(O)c1cc2cc(/N=N/c3ccc(Br)cc3)c(O)cc2oc1=O [LSP9-5096, (E)-6-((4-bromophenyl)diazenyl)-7-hydroxy-2-oxo-2H-chromene-3-carboxylic Acid]",,10,
"O=C(O)c1cc2cc(C#Cc3ccccc3)ccc2oc1=O [LSP17-1044, 2-oxo-6-(phenylethynyl)-2H-chromene-3-carboxylic Acid]",,30,
COc1cc2oc(=O)c(C(=O)O)cc2cc1/N=N/c1ccc(Br)cc1 [LSP9-3164],30,40,
"COc1cc2oc(=O)c(C(=O)O)cc2cc1/N=N/c1ccccc1 [LSP9-4108, (E)-7-methoxy-2-oxo-6-(phenyldiazenyl)-2H-chromene-3-carboxylic Acid]",50,30,
COc1cc(Br)ccc1/N=N/c1cc(OC)c2oc(=O)c(C(=O)O)cc2c1 [LSP9-3163],,9,
"O=C(O)c1cc(C(=O)O)c2cc(-c3ccc(-c4ccc(-c5ccc6nc(C(=O)O)cc(C(=O)O)c6c5)cc4)cc3)ccc2n1 [LSP13-1160-YL160, 6,6′-(Biphenyl-4,4′-diyl)diquinoline-2,4-dicarboxylic Acid]",,,% inhibition of GLU vesicular transport at 20 μM (quinoline-derived compounds): 100%; EC50 (quinoline-derived compounds): 3.6 µM
"O=C(O)c1cc2cc(/N=N/c3ccccc3)c(O)cc2oc1=O [LSP9-4153, (E)-7-hydroxy-2-oxo-6-(phenyldiazenyl)-2H-chromene-3-carboxylic Acid]",,12,
"O=C(O)c1cc(C(=O)O)c2cc(/C=C/c3ccc(-c4ccc(/C=C/c5ccc6nc(C(=O)O)cc(C(=O)O)c6c5)cc4)cc3)ccc2n1 [LSP13-1173-YL173, 6,6′-2,2′-(biphenyl-4,4′-diyl)bis(ethene-2,1-diyl)diquinoline-2,4-dicarboxylic Acid]",,,% inhibition of GLU vesicular transport at 20 μM (quinoline-derived compounds): 72%; EC50 (quinoline-derived compounds): 15 µM
COc1cc(/N=N/c2ccc(Br)cc2)cc2cc(C(=O)O)c(=O)oc12 [LSP9-3162],,42,
"COc1cc2oc(=O)c(C(=O)O)cc2cc1/N=N/c1ccc(-c2ccc(N)cc2)cc1 [LSP9-4089, (E)-6-((4′-aminobiphenyl-4-yl)diazenyl)-7-methoxy-2-oxo-2H-chromene-3-carboxylic Acid]",,35,
"O=C(O)c1cc2cc(/N=N/c3ccccc3)ccc2oc1=O [LSP9-4126, (E)-2-oxo-6-(phenyldiazenyl)-2H-chromene-3-carboxylic Acid]",,5,
"CCN(CC)c1cc2oc(=O)c(C(=O)O)cc2cc1C#Cc1ccccc1 [LSP17-1042, 7-(diethylamino)-2-oxo-6-(phenylethynyl)-2H-chromene-3-carboxylic Acid]",,12,
"CCOC(=O)c1cc(C(=O)OCC)c2cc(-c3ccc(-c4ccc(-c5ccc6nc(C(=O)OCC)cc(C(=O)OCC)c6c5)cc4)cc3)ccc2n1 [LSP13-1153-YL153, Tetraethyl 6,6′-(biphenyl-4,4′-diyl)diquinoline-2,4-dicarboxylate]",,,% inhibition of GLU vesicular transport at 20 μM (quinoline-derived compounds): 69%; EC50 (quinoline-derived compounds): 12.3 µM
"COc1cc2oc(=O)c(C(=O)O)cc2cc1/C=C/c1ccccc1 [LSP16-2077, (E)-7-methoxy-2-oxo-6-styryl-2H-chromene-3-carboxylic acid]",,30,
COc1cc(Br)ccc1/N=N/c1cc2cc(C(=O)O)c(=O)oc2cc1OC [LSP9-4150],,15,

# Further lines, with some results ahead:
EC50 (coumarin-derived compounds) [µM],Compound,% inhibition of GLU vesicular transport at 20 μM (coumarin-derived compounds) [%],further results
21,"COc1cc2oc(=O)c(C(=O)O)cc2cc1C#Cc1ccccc1 [LSP17-1046, 7-methoxy-2-oxo-6-(phenylethynyl)-2H-chromene-3-carboxylic Acid]",48,
23,"O=C(O)c1cc2cc(-n3cc(-c4ccccc4)nn3)ccc2oc1=O [LSP17-1100, 2-oxo-6-(4-phenyl-1H-1,2,3-triazol-1-yl)-2H-chromene-3-carboxylic Acid]",48,
5,"CCN(CC)c1cc2oc(=O)c(C(=O)O)cc2cc1C#Cc1ccc(-c2ccc(N)cc2)cc1 [LSP17-1126, 6-((4′-amino-[1,1′-biphenyl]-4-yl)ethynyl)-7-(diethylamino)-2-oxo-2H-chromene-3-carboxylic Acid]",100,potency in words (EC50): effective at a very low concentration
20,"CCN(CC)c1cc2oc(=O)c(C(=O)O)cc2cc1-n1cc(-c2ccc(-c3ccc(N)cc3)cc2)nn1 [LSP17-1154, 6-(4-(4′-amino-[1,1′-biphenyl]-4-yl)-1H-1,2,3-triazol-1-yl)-7-(diethylamino)-2-oxo-2H-chromene-3-carboxylic Acid]",50,
5,"Nc1ccc(-c2ccc(C#Cc3ccc4oc(=O)c(C(=O)O)cc4c3)cc2)cc1 [LSP17-1125, 6-((4′-amino-[1,1′-biphenyl]-4-yl)ethynyl)-2-oxo-2H-chromene-3-carboxylic Acid]",100,potency in words (EC50): effective at a very low concentration
267,"O=C(O)c1cc2cc(C#Cc3ccccc3)c(O)cc2oc1=O [LSP17-1177, 7-hydroxy-2-oxo-6-(phenylethynyl)-2H-chromene-3-carboxylic Acid]",20,
15,"CCN(CC)c1cc2oc(=O)c(C(=O)O)cc2cc1-n1cc(-c2ccccc2)nn1 [LSP17-1153, 7-(diethylamino)-2-oxo-6-(4-phenyl-1H-1,2,3-triazol-1-yl)-2H-chromene-3-carboxylic Acid]",62,
25,"COc1cc2oc(=O)c(C(=O)O)cc2cc1-n1cc(-c2ccccc2)nn1 [LSP17-1116, 7-methoxy-2-oxo-6-(4-phenyl-1H-1,2,3-triazol-1-yl)-2H-chromene-3-carboxylic Acid]",45,
